Experimental data published in PubChem BioAssay (NCI).
Where “and” joins values, the source holds several entries; their conditions need not be identical. Identical values can stand only once.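 Tested at 5 concentrations; 48 h exposure; 96-well plates; endpoints linearly interpolated, else capped at highest concentration. GI50: concentration for 50% inhibition of growth. At the TGI there is no net growth.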

Assays:
Experiment in all cases: NCI anticancer screen, dose series, 48 h
T-47D breast = test system: T-47D breast
MDA-N = test system: MDA-N
XF 498 CNS = test system: XF 498 CNS
DLD-1 colon = test system: DLD-1 colon
M19-MEL melanoma = test system: M19-MEL melanoma
KM20L2 colon = test system: KM20L2 colon
SNB-78 CNS = test system: SNB-78 CNS
HOP-18 NSCLC = test system: HOP-18 NSCLC

Row | SMILES | GI50 (T-47D breast) | TGI (T-47D breast) | further results
1 | CCN(CC)CCOc1ccc(/C=C2\CC3C4CC=C5C[C@@H](O)CC[C@]5(C)C4CC[C@]3(C)C2=O)cc1OC (some centres not stated) | 2.79 µM | > 100 µM | –
2 | Cc1ccc(-c2nc3ccc([N+](=O)[O-])cc3[nH]2)cc1 | – | > 100 µM | TGI (MDA-N): > 100 µM
3 | CC(C)=CCc1cc(O)cc2c1OC(C=C(C)C)C1=C2C(=O)C2=C(NCCS2(=O)=O)C1=O (configuration not stated) | 3.32 µM | 14.1 µM | –
4 | CS(=O)(=O)CCCn1c(=O)c(Oc2ccc(F)cc2F)cc2cnc(NC3CCOCC3)nc21 | > 25 µM | > 25 µM | –
5 | COC1C(O)=C2C(=O)O/C(C)=C/C=C/C=C/C=C\CC(c3ccccc3)NC(=O)\C=C/C=C\C=C\C=C\[C@@]2(C)[C@@H]1O (some centres not stated) | – | 0.158 µM | TGI (XF 498 CNS): 0.304 µM; TGI (MDA-N): 0.265 µM; TGI (DLD-1 colon): 0.147 µM; TGI (M19-MEL melanoma): 0.273 µM; TGI (KM20L2 colon): 0.165 µM
6 | CC(=O)c1cc2c(o1)C(=O)c1ccccc1C2=O | 1.33 µM and 1.6 µM | 3.43 µM and 4.06 µM | –
7 | Cc1csc(Nc2nc(-c3cccc(Br)c3)nc(C(Cl)(Cl)Cl)n2)n1 | 1.38 µM | > 26.8 µM | –
8 | CC(CC(=O)O)C(C(=O)O)C(=O)O (configuration not stated) | – | > 100 µM | TGI (MDA-N): > 100 µM
9 | O=c1cc2oc3cc(O)c(O)cc3c(-c3ccccc3O)c-2cc1O | 9.51 µM | > 100 µM | –
10 | Cc1cn2c(/C=C3\C(=O)Nc4ccc(O)cc43)c(-c3ccc(Cl)cc3)nc2s1 | 8.96 µM | 30.2 µM | –
11 | O=C1c2ccccc2C2(O)c3cc4ccccc4cc3OC12O (configuration not stated) | – | – | TGI (SNB-78 CNS): > 100 µM; TGI (HOP-18 NSCLC): > 100 µM; TGI (DLD-1 colon): > 100 µM; TGI (M19-MEL melanoma): > 100 µM; TGI (KM20L2 colon): > 100 µM
12 | O=C(c1ccc(F)c(F)c1Nc1ccc(I)cc1F)N1CC(O)([C@@H]2CCCCN2)C1 | 9.05 µM and > 10 µM | 23.1 µM and > 10 µM | –
13 | Cc1nc2cnc(N)c(C#Cc3cncc(C(=O)Nc4ccc(CN5CCN(C)CC5)c(C(F)(F)F)c4)c3)c2nc1C | 3.35 µM | 26 µM | –
14 | O=C(Nc1cc(Cl)ccc1Cl)c1cc2cccc(Cl)c2oc1=O | – | – | TGI (XF 498 CNS): > 100 µM; TGI (HOP-18 NSCLC): > 100 µM; TGI (DLD-1 colon): > 100 µM; TGI (M19-MEL melanoma): > 100 µM; TGI (KM20L2 colon): > 100 µM
15 | Ic1ccc(-n2nnnc2-c2cnoc2-c2ccccc2)cc1 | 48.8 µM | > 100 µM | –
16 | COc1cc(CNCCCN2C(=O)c3ccc4c5c(ccc(c35)C2=O)C(=O)N(CCCNCc2cc(OC)c(OC)c(OC)c2)C4=O)cc(OC)c1OC | 0.38 µM | 1.12 µM | –
17 | CCCn1c(N)c(C(=O)N/N=C(/C)c2cc3cccc(OC)c3o2)sc1=S | > 100 µM | > 100 µM | –
18 | CCOC(=O)NC(=O)c1cn(CCOC(=O)NCCCCCCNC(=O)OCCn2cc(C(=O)NC(=O)OCC)c(=O)[nH]c2=O)c(=O)[nH]c1=O | – | – | TGI (SNB-78 CNS): > 100 µM; TGI (HOP-18 NSCLC): > 100 µM; TGI (DLD-1 colon): > 100 µM; TGI (M19-MEL melanoma): > 100 µM; TGI (KM20L2 colon): > 100 µM
19 | COC1[C@@H](OC(C)=O)[C@@H](NC(=O)C(Cl)(Cl)Cl)C(I)[C@@H](N2C(=O)c3ccccc3C2=O)[C@H]1OC (some centres not stated) | – | – | TGI (SNB-78 CNS): > 100 µM; TGI (HOP-18 NSCLC): > 100 µM; TGI (DLD-1 colon): > 100 µM; TGI (KM20L2 colon): > 100 µM
20 | Nc1nc(N)c(N=Nc2ccc([As](=O)(O)O)cc2)c(=O)[nH]1 | – | > 100 µM | TGI (MDA-N): > 100 µM
21 | COc1ccncc1C#Cc1cncc(C(=O)Nc2ccc(CN3CCN(C)CC3)c(C(F)(F)F)c2)c1 | 89.1 µM | > 100 µM | –
22 | CCCCCCNC(=O)c1nc(-c2ccccc2)oc1Cc1ccc(OP(=O)(O)O)cc1 | 16.5 µM | 30.8 µM | –
23 | NS(=O)(=O)c1ccc(N(/C=C/C(=O)C(F)(F)F)CC(=O)c2ccc(Cl)cc2)cc1 | 63.6 µM | > 100 µM | –
24 | c1ccc(SC2CCSc3ccccc3C2Sc2ccccc2)cc1 (configuration not stated) | – | – | TGI (XF 498 CNS): > 100 µM; TGI (SNB-78 CNS): > 100 µM; TGI (DLD-1 colon): > 100 µM; TGI (KM20L2 colon): > 100 µM
25 | COc1ccccc1N1CCN(CCCn2c(=O)c3c(OC)nc(C)cc3c(=O)n2-c2ccccc2)CC1 | > 100 µM | > 100 µM | –
26 | COc1cccc2c1C(=O)c1c(O)c3c(c(O)c1C2=O)CC(O)(/C(C)=N/NC(=O)CCC(=O)N/N=C(\C)C1(O)Cc2c(O)c4c(c(O)c2C(OC2CC(N)C(O)C(C)O2)C1)C(=O)c1c(OC)cccc1C4=O)CC3OC1CC(N)C(O)C(C)O1 (configuration not stated) | 0.172 µM | 1.68 µM | –
27 | O=C(c1c(F)ccc(NS(=O)(=O)N2CC[C@@H](F)C2)c1F)c1c[nH]c2ncc(-c3cnc(C4CC4)nc3)cc12 | 2.91 µM and 2.43 µM | > 10 µM and 16.5 µM | –
28 | CC(=O)OC12c3ccccc3-c3ccccc3C1C1C(=O)N(C)C(=O)C12Cl (configuration not stated) | – | > 10 µM | TGI (MDA-N): > 10 µM
29 | C=CC(=O)N1CCC(C2CCNc3c(C(N)=O)c(-c4ccc(Oc5ccccc5)cc4)nn32)CC1 (configuration not stated) | 1.4 µM | 28.4 µM | –
30 | C[C@H]1Oc2cc(cnc2N)-c2c(nn(C)c2C#N)CN(C)C(=O)c2ccc(F)cc21 | 36.2 µM | > 100 µM | –
